Source: PubChem BioAssay AID248 (DTP/NCI, 2004)
Where “and” joins values, the source holds several entries; their conditions need not be identical. Identical values can stand only once. Toxic doses and inconclusive results are not listed. Cut-off read from the data, not from the text of the source: active = T/C of 150% or more; inactive = T/C below 125%.

System: L1210 leukemia ip in BDF1 mice, survival T/C
Experiment: NCI In Vivo Anticancer Drug Screen. Data for tumor model L1210 Leukemia (intraperitoneal) in B6D2F1 (BDF1) mice
Conditions: endpoint: mean survival time, higher = longer survival
Procedure, shortened: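 In this screen, tumor-bearing mice given compound are compared to those given vehicle, and their survival values are reported as a treated-to-control quotient.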

[1] = dose: 100.0 mg/kg/injection, schedule: Q01DX009 (ip), vehicle: saline with Tween-80
[2] = dose: 200.0 mg/kg/injection, schedule: Q01DX009 (ip), vehicle: saline with Tween-80
[3] = dose: 400.0 mg/kg/injection, schedule: Q01DX009 (ip), vehicle: saline with Tween-80
[4] = dose: 100.0 mg/kg/injection, schedule: Q04DX002 (ip), vehicle: Klucel (hydroxypropylcellulose) (HPC)
[5] = dose: 200.0 mg/kg/injection, schedule: Q04DX002 (ip), vehicle: Klucel (hydroxypropylcellulose) (HPC)
[6] = dose: 400.0 mg/kg/injection, schedule: Q04DX002 (ip), vehicle: Klucel (hydroxypropylcellulose) (HPC)
[7] = dose: 100.0 mg/kg/injection, schedule: Q04DX003 (ip), vehicle: saline with Tween-80
[8] = dose: 100.0 mg/kg/injection, schedule: Q04DX003 (ip), vehicle: saline
[9] = dose: 200.0 mg/kg/injection, schedule: Q04DX003 (ip), vehicle: saline with Tween-80
[10] = dose: 200.0 mg/kg/injection, schedule: Q04DX003 (ip), vehicle: saline
[11] = dose: 400.0 mg/kg/injection, schedule: Q04DX003 (ip), vehicle: saline with Tween-80
[12] = dose: 400.0 mg/kg/injection, schedule: Q04DX003 (ip), vehicle: saline
[13] = dose: 100.0 mg/kg/injection, schedule: Q01DX001 (ip), vehicle: saline
[14] = dose: 200.0 mg/kg/injection, schedule: Q01DX001 (ip), vehicle: saline
[15] = dose: 400.0 mg/kg/injection, schedule: Q01DX001 (ip), vehicle: saline
[16] = dose: 100.0 mg/kg/injection, schedule: Q01DX001 (ip), vehicle: other
[17] = dose: 200.0 mg/kg/injection, schedule: Q01DX001 (ip), vehicle: other
[18] = dose: 400.0 mg/kg/injection, schedule: Q01DX001 (ip), vehicle: other
[19] = dose: 100.0 mg/kg/injection, schedule: Q01DX001 (ip), vehicle: carboxymethylcellulose (CMC)
[20] = dose: 100.0 mg/kg/injection, schedule: Q04DX003 (ip), vehicle: Klucel (hydroxypropylcellulose) (HPC)
[21] = dose: 200.0 mg/kg/injection, schedule: Q01DX001 (ip), vehicle: carboxymethylcellulose (CMC)
[22] = dose: 200.0 mg/kg/injection, schedule: Q04DX003 (ip), vehicle: Klucel (hydroxypropylcellulose) (HPC)
[23] = dose: 400.0 mg/kg/injection, schedule: Q04DX003 (ip), vehicle: Klucel (hydroxypropylcellulose) (HPC)

Measured: T/C

CC[C@@]1(O)C[C@H](OC2CC(N(C)C)C(OC3CC(O)C(O[C@@H]4O[C@@H](C)C(=O)C=C4N)C(C)O3)C(C)O2)c2c(cc3c(c2O)C(=O)c2c(O)ccc(O)c2C3=O)[C@H]1C(=O)OC (stereo partly drawn)
inactive: dose: 0.05 mg/kg/injection, schedule: Q01DX009 (ip), vehicle: suspension in saline 117 % of control | dose: 0.05 mg/kg/injection, schedule: Q09DX009 (ip), vehicle: saline 104 % of control | dose: 0.1 mg/kg/injection, schedule: Q05DX005 (ip), vehicle: saline 106 % of control | dose: 0.1 mg/kg/injection, schedule: Q09DX009 (ip), vehicle: saline 106 % of control | dose: 0.2 mg/kg/injection, schedule: Q01DX009 (ip), vehicle: suspension in saline 111 % of control | dose: 0.2 mg/kg/injection, schedule: Q03DX003 (ip), vehicle: saline 118 % of control | dose: 0.2 mg/kg/injection, schedule: Q05DX005 (ip), vehicle: saline 122 % of control | dose: 0.2 mg/kg/injection, schedule: Q09DX009 (ip), vehicle: saline 111 % of control | dose: 0.4 mg/kg/injection, schedule: Q01DX001 (ip), vehicle: saline 111 % of control | dose: 0.4 mg/kg/injection, schedule: Q01DX009 (ip), vehicle: suspension in saline 100 % of control | dose: 0.4 mg/kg/injection, schedule: Q03DX003 (ip), vehicle: saline 108 % of control | dose: 0.8 mg/kg/injection, schedule: Q01DX001 (ip), vehicle: saline 118 % of control | dose: 0.8 mg/kg/injection, schedule: Q01DX009 (ip), vehicle: suspension in saline 100 % of control | dose: 1.6 mg/kg/injection, schedule: Q01DX001 (ip), vehicle: saline 113 % of control | dose: 1.6 mg/kg/injection, schedule: Q05DX005 (ip), vehicle: saline 115 % of control | dose: 1.6 mg/kg/injection, schedule: Q09DX009 (ip), vehicle: saline 104 % of control | dose: 3.2 mg/kg/injection, schedule: Q03DX003 (ip), vehicle: saline 101 % of control | dose: 3.2 mg/kg/injection, schedule: Q05DX005 (ip), vehicle: saline 118 % of control | dose: 6.4 mg/kg/injection, schedule: Q03DX003 (ip), vehicle: saline 122 % of control

Cc1nc2cc3ccccc3c3ccc4cccc1c4c23
inactive: [1] 93 % of control | [2] 93 % of control | [3] 87 % of control

O=C(Nc1ccccc1Cl)N(C1CCCCC1)C1CCCCC1
inactive: [4] 103 % of control | [5] 100 % of control | [6] 106 % of control

O=C(Nc1ccccc1)Nc1ccccc1Cl
inactive: [4] 110 % of control | [5] 93 % of control | [6] 107 % of control

CCCNC(=O)C1C2CC3OC(=O)C1C3C2 (stereo not drawn)
inactive: [7] 90 % of control | [8] 98 % of control | [9] 95 % of control | [10] 91 % of control | [11] 93 % of control | [12] 102 % of control

CN(CCC(=O)O)S(=O)(=O)c1ccccc1
inactive: [13] 103 % of control | [14] 97 % of control | [15] 89 % of control

Cc1c2oc3c(C)ccc(C(=O)NCCN4CCOCC4)c3nc-2c(C(=O)NCCN2CCOCC2)c(N)c1=O
inactive: dose: 100.0 mg/kg/injection, schedule: Q04DX002 (ip), vehicle: saline with Tween-80 98 % of control | dose: 200.0 mg/kg/injection, schedule: Q04DX002 (ip), vehicle: saline with Tween-80 92 % of control

O=[N+]([O-])c1ccc(N/N=C/CCc2ccccc2O)c([N+](=O)[O-])c1
inactive: dose: 50.0 mg/kg/injection, schedule: Q01DX001 (ip), vehicle: saline 112 % of control | [13] 98 % of control | [14] 93 % of control | [15] 98 % of control

COc1ccc2[nH]c(-c3ccccc3)c(-c3ccccc3)c2c1
inactive: [1] 90 % of control | [7] 89 % of control | [9] 87 % of control | [11] 92 % of control

O=[N+]([O-])c1ccc(Oc2cc(Cl)c(Cl)cc2Cl)c([N+](=O)[O-])c1
inactive: [16] 90 % of control | dose: 100.0 mg/kg/injection, schedule: Q04DX003 (ip), vehicle: other 98 % of control | [17] 92 % of control | dose: 200.0 mg/kg/injection, schedule: Q04DX003 (ip), vehicle: other 95 % of control | dose: 222.0 mg/kg/injection, schedule: Q01DX Z (ip), vehicle: methylcellulose (MC) 100 % of control | dose: 333.0 mg/kg/injection, schedule: Q01DX Z (ip), vehicle: methylcellulose (MC) 91 % of control | [18] 89 % of control and 91 % of control | dose: 400.0 mg/kg/injection, schedule: Q04DX003 (ip), vehicle: other 95 % of control | dose: 500.0 mg/kg/injection, schedule: Q01DX Z (ip), vehicle: methylcellulose (MC) 91 % of control

O=[N+]([O-])c1ccc(O)c(C2N(Cc3ccc(N(CCCl)CCCl)cc3)CCCN2Cc2ccc(N(CCCl)CCCl)cc2)c1
inactive: dose: 50.0 mg/kg/injection, schedule: Q01DX001 (ip), vehicle: carboxymethylcellulose (CMC) 109 % of control | dose: 100.0 mg/kg/injection, schedule: Q01DX001 (ip), vehicle: Klucel (hydroxypropylcellulose) (HPC) 93 % of control | [19] 109 % of control | dose: 100.0 mg/kg/injection, schedule: Q01DX009 (ip), vehicle: Klucel (hydroxypropylcellulose) (HPC) 93 % of control | [20] 103 % of control | dose: 200.0 mg/kg/injection, schedule: Q01DX001 (ip), vehicle: Klucel (hydroxypropylcellulose) (HPC) 95 % of control | [21] 118 % of control | dose: 200.0 mg/kg/injection, schedule: Q01DX009 (ip), vehicle: Klucel (hydroxypropylcellulose) (HPC) 98 % of control | [22] 97 % of control | dose: 400.0 mg/kg/injection, schedule: Q01DX001 (ip), vehicle: Klucel (hydroxypropylcellulose) (HPC) 95 % of control | dose: 400.0 mg/kg/injection, schedule: Q01DX009 (ip), vehicle: Klucel (hydroxypropylcellulose) (HPC) 94 % of control | [23] 95 % of control

CC(C)(C)OC(=O)NN1Cc2ccccc2Cc2ccccc2C1
inactive: [19] 96 % of control | [21] 91 % of control | dose: 400.0 mg/kg/injection, schedule: Q01DX001 (ip), vehicle: carboxymethylcellulose (CMC) 96 % of control

OC(Cc1cnc2ccccc2n1)C(Cl)(Cl)Cl (stereo not drawn)
inactive: [1] 102 % of control | [20] 90 % of control | [2] 97 % of control | [22] 95 % of control | [3] 94 % of control | [23] 108 % of control

Clc1cc(/C=C/c2ccccc2)c2ccccc2n1
inactive: [13] 105 % of control | [14] 105 % of control | [15] 100 % of control

CCCOCC(O)C[As](=O)(O)c1cccc(Cl)c1 (stereo not drawn)
inactive: dose: 6.25 mg/kg/injection, schedule: Q01DX001 (ip), vehicle: saline with Tween-80 104 % of control | dose: 12.5 mg/kg/injection, schedule: Q01DX001 (ip), vehicle: saline with Tween-80 102 % of control | dose: 25.0 mg/kg/injection, schedule: Q01DX001 (ip), vehicle: saline with Tween-80 100 % of control

O=S(=O)(CC(Cl)c1ccccc1)c1ccc(F)cc1 (stereo not drawn)
inactive: [13] 109 % of control | dose: 100.0 mg/kg/injection, schedule: Q01DX009 (ip), vehicle: saline 91 % of control | [8] 91 % of control | [14] 100 % of control | dose: 200.0 mg/kg/injection, schedule: Q01DX009 (ip), vehicle: saline 110 % of control | [10] 97 % of control | [15] 97 % of control | dose: 400.0 mg/kg/injection, schedule: Q01DX009 (ip), vehicle: saline 99 % of control | [12] 98 % of control

O=Cc1cc([N+](=O)[O-])ccc1O
inactive: [16] 101 % of control | [17] 97 % of control | [18] 103 % of control

CC1CC(=O)NN1 (stereo not drawn)
inactive: [1] 94 % of control | [2] 90 % of control | [3] 96 % of control
